Measurements published in patent US4710500A, “1-(4'-fluorophenyl)-3,5-substituted indoles useful in the treatment of psychic disorders and pharmaceutical compositions thereof” (H. Lundbeck A/S, priority 1985, dated 1987).
Like-named read-outs stand apart in the source and are kept apart here.

Tests used:
[1] = tested on: methylphenidate-induced gnawing; test: Methylphenidate antagonism; assay type: in vivo, mice; conditions: for ED50: Mus musculus
5-HT2 receptor = target: T1, 5-HT2 receptor (Rattus norvegicus, UniProt P14842); test: Quipazine inhibition (head twitches); assay type: in vivo; conditions: sc 2 hours before quipazine 15 umol/kg sc
T1 construct: from tissue; host or cells: living rats (in vivo), CNS
Method: Quipazine and a number of other compounds, which increase 5-HT2 receptor activity in the CNS, induce a characteristic rapid shake (twitch) of the head. This response is inhibited by 5-HT2 receptor antagonists (Vetulani et al. 1980, Arnt et al. 1984).
The test compound or saline is injected subcutaneously 2 hours before subcutaneous injection of quipazine hemimalecate (15umol/kg). At least 3 dose groups, each consisting of at least 4 rats, are used. The rats are individually placed in observation cages (12×25 cm) and the number of head twitches are counted 30-40 min after quipazine administration. Inhibition of head twitches is expressed in per cent of the number of head twitches in the control group. ED 50 values are calculated by log-probit analysis.
Vetulani, J., B.B. Beduarczyk, K. Reichenberg and A. Rokost: Neuropharmacology 19, 155-158, […].
(§1) Arnt, J., J. Hyttel and J.-J. Larsen: Acta pharmacol. et toxicol. 55, 363-372, 1984.

[2] = target: T2, dopamine (DA) D-2 receptors (Rattus norvegicus, UniProt P61169); test: 3H-spiroperidol binding, dopamine D-2 receptors in rat striatal membranes
T2 construct: DA D-2 receptors in rat striatal membranes; from tissue; host or cells: rat striatal membranes
Method: (§2) 4. ^3 H-spiroperidol bindings
The affinity of compounds to dopamine (DA) D-2 receptors and serotomin2 (5-HT2) receptors was determined by in vitro receptor binding technique.
Arnt, J., J. Hyttel and J.-J. Larsen: Acta pharmacol. et toxicol.

in vivo = conditions: mouse, iv
[3] = target: T3, serotomin2 (5-HT2) receptors (Rattus norvegicus, UniProt P14842); test: 3H-spiroperidol binding, 5-HT2 receptors in rat cortical membranes; conditions: in vitro, read-out: 3H-Spiroperidol bindings 5-HT2 receptors IC50
T3 construct: 5-HT2 receptors in rat cortical membranes; from tissue; host or cells: rat cortical membranes
Method: as §2
The affinity of compounds to dopamine (DA) D-2 receptors and serotomin2 (5-HT2) receptors was determined by in vitro receptor binding technique. Binding of ^3 H-spiroperidol to DA D-2 receptors in rat striatal membranes and to 5-HT2 receptors in rat cortical membranes was determined as described in detail by Arnt et al. (1984).
as §1

Catalepsy = assay type: in vivo, rat
[4] = i.v., mice; compared with known neuroleptics
[5] = pharmacological testing (general statements); conditions: result in words
Method: The compounds of Formula I were tested according to reliable and well recognized pharmacological tests as follows: […]

[6] = i.p. test substance, mice, methylphenidate s.c. 60 mg/kg
[7] = rat striatal membranes, in vitro, read-out: 3H-Spiroperidol bindings DA-2 receptors IC50
[8] = Rattus norvegicus, sc, 24 h, read-out: Catalep. ED50 (sc) 24 h

T2 sequence (P61169 whole entry): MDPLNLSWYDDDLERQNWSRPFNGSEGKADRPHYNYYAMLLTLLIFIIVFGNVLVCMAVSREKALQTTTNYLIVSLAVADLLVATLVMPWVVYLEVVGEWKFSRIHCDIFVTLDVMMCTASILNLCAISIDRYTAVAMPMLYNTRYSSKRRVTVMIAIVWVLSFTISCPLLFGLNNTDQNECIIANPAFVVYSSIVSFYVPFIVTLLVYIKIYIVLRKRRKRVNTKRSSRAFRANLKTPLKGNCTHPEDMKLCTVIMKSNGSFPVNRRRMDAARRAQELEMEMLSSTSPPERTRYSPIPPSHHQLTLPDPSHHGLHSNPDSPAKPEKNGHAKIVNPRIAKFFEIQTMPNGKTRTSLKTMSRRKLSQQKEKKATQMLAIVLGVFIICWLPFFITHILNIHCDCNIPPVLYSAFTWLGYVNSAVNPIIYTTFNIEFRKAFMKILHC
T1 sequence (P14842 whole entry): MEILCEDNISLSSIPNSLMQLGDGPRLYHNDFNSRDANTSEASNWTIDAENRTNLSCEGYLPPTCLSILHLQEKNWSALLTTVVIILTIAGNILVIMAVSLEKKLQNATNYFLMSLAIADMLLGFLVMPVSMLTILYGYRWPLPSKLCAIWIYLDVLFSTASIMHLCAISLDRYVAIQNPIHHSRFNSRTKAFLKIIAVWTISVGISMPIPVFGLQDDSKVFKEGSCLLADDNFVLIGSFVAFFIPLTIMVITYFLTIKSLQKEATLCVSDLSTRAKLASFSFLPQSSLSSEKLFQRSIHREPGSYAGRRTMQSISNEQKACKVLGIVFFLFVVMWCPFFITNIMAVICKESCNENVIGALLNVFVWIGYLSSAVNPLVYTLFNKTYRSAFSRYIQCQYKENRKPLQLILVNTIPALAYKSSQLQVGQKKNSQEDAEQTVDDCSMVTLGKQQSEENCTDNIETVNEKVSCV
T3 sequence (P14842 whole entry): as above

Compound | MePh Antg. ED50(ip) [1, 6] | Qvipaz. inh. ED50(sc) (5-HT2 receptor) | IC50 [2, 7] | LD50 (in vivo) | IC50 [3] | Catalep. ED50(po) 1-6 h (Catalepsy; po, rat, 1-6 h) | Catalep. ED50(po) 24 h (Catalepsy; po, rat, 24 h) | ED50 ([1]; ip, i.p. test substance, mice, methylphenidate s.c. 60 mg/kg, read-out: MePh Antg. ED50(ip)) | acute toxicity [4] | ED50 (Catalepsy; read-out: Catalep. ED50(po) 1-6 h, po, rat, 1-6 h) | ED50 (Catalepsy; read-out: Catalep. ED50(po) 24 h, po, rat, 24 h) | ED50 ([1]; ip, read-out: MePh Antg. ED50(ip)) | IC50 [2] | ED50 (Catalepsy; Rattus norvegicus, po, read-out: Catalep. ED50(po) 1-6 h) | ED50 (Catalepsy; [8]) | effects in the pharmacological testing [5] | ED50 ([1]; sc, read-out: MePh Antg. ED50 (sc)) | ED50 (Catalepsy; Rattus norvegicus, sc, read-out: Catalep. ED50 (sc) 1-6 h)
OCCN1CCN([C@@H]2C[C@@H](c3ccc(F)cc3)c3ccc(C(F)(F)F)cc32)CC1 (racemic) [Tefludazine, reference compound] | 0.06 µmol/kg | 0.06 µmol/kg | 19 nM | 120 to 180 µmol/kg | 8.6 nM | 0.61 µmol/kg | 0.9 µmol/kg |  |  |  |  |  |  |  |  |  |  | 
OCCN1CCN(c2cn(-c3ccc(F)cc3)c3ccc(C(F)(F)F)cc23)CC1 [Lu 21-152, 1-(4'-Flurophenyl)-3-(4-(2-hydroxyethyl)-piperazino)-5-trifluoromethyl-1H-indole] |  | 0.023 µmol/kg | 2.8 nM | 147 µmol/kg | 7.4 nM |  |  | 0.11 µmol/kg | comparatively low acute toxicity | 0.17 µmol/kg | 0.28 µmol/kg |  |  |  |  |  |  | 
CN1CC=C(c2cn(-c3ccc(F)cc3)c3ccc([N+](=O)[O-])cc23)CC1 [Lu 22-135, 1-(4'-Fluorophenyl)-5-nitro-3-(1-methyl-1,2,3,6-tetrahydropyridin-4-yl)-1H-indole] |  | 0.009 µmol/kg |  | 276 µmol/kg | 1.9 nM |  |  |  | comparatively low acute toxicity |  |  | 0.1 µmol/kg | 1.1 nM | 0.078 µmol/kg | > 0.89 µmol/kg |  |  | 
CN1CCN(c2cn(-c3ccccc3)c3ccc(Cl)cc23)CC1 [Lu 23-015, 5-Chloro-3-(4-methylpiperazino)-1-phenyl-1H-indole, reference compound] | 8.8 µmol/kg | 0.062 µmol/kg | 12 nM |  | 3.9 nM | 12.0 µmol/kg | > 15 µmol/kg |  |  |  |  |  |  |  |  | without interesting effects |  | 
OCCN1CC=C(c2c[nH]c3ccc(Cl)cc23)CC1 [Lu 23-143, 5-chloro-3-(1-(2-hydroxyethyl)-1,2,3,6-tetrahydropyrid-4-yl)indol, reference compound] |  | 4.5 µmol/kg |  |  |  |  |  |  |  |  |  |  |  |  | > 18 µmol/kg | almost inactive compared with the compounds of Formula I | 72 µmol/kg | > 18 µmol/kg
